Assay results taken from patent US8445006B2, “Biomolecular coating for implants” (Georgia Tech Research Corporation, priority 2006, dated 2013).

Tests used:
[1] = test system: bone marrow stromal cells; experiment: Centrifugation cell adhesion assay on titanium surfaces; format: cell-based, rat; details: for stromal cell adhesion (adherent cell fraction): 1 h serum-free, centrifugation 12 g, no antibody, adsorbed on Ti at 20 μg/ml
Description: Primary bone marrow stromal cells were harvested from the femora of young adult male Wistar rats in accordance with an IACUC-approved protocol. After excision, hindleg femora and tibiae were cleared of soft tissue and rinsed in growth medium (α-minimal essential medium supplemented with 10% fetal bovine serum, 1% penicillin-streptomycin, and 0.3 μg/ml amphotericin B). The ends of the long bones were then removed and the marrow space was flushed with culture medium (3-5 ml), using a syringe with an 18-gauge needle. Marrow isolates were pooled, centrifuged, resuspended in growth medium, and seeded for adhesion-dependent selection on tissue culture polystyrene dishes. Non-adherent hematopoietic cells were removed during subsequent medium exchanges, which occurred every other day. Cells were subcultured every two days according to standard techniques. For in vitro osteogenic assays, cells were seeded at 10,000 cells/cm^2 in growth medium. After 24 h, cultures were maintained in osteogenic medium consisting of growth medium supplemented with 50 μg/ml L-ascorbic acid and 3 mM sodium β-glycerophosphate.
The peptide […](GPP)5GFOGER(GPP)5GPC (SEQ ID NO:1) [O=hydroxyproline] was prepared by the Emory University Microchemical Facility using solid phase t-Boc synthesis. Peptide was supplied in the purified form as a trifluoroacetic acid (TFA) salt and reconstituted at a stock concentration of 10 mg/ml in 0.1% TFA. For the in vitro assays, glass chamber slides (16-well Lab-Tek Chamber Slides, Nalge Nunc) or tissue culture-treated polystyrene dishes were coated with 300 Å of pure titanium using an electron beam evaporator at a chamber base pressure between 1-2×10^−6 torr with a deposition rate of 1.5 Å/second. The GFOGER peptide (SEQ ID NO:1) was diluted to 20 μg/ml in Dulbecco's phosphate-buffered saline (PBS) and incubated on the titanium surfaces for 1 h at 22° C.
Cell adhesion to functionalized and untreated titanium surfaces was measured using a centrifugation assay that applies controlled detachment forces. Titanium-coated glass chamber slide wells were reassembled using a silicone-based adhesive and coated with 20 μg/ml GFOGER peptide (SEQ ID NO:1) or 20 μg/ml GRGDSPC (SEQ ID NO:3) peptide (BACHEM). Control titanium slides were coated with 10% FBS (to model serum protein adsorption) or blocking buffer (5% non-fat dry milk in PBS to produce a non adhesive support). […] Initial fluorescence intensity was measured to quantify the number of adherent cells prior to application of centrifugal force. […] After centrifugation, media was exchanged and fluorescence intensity was read to measure remaining adherent cells. For each well, adherent cell fraction was calculated as the ratio of post-spin to pre-spin fluorescence readings. […]

α5β1 integrin = biological target: T1, α5β1 integrin (Mus musculus, UniProt P09055+P11688); experiment: Crosslinking/extraction immunostaining of bound integrin; format: cell-based, murine; details: 4 h on saturated ligand-functionalized SAMs
T1 construct: endogenous in cells; host or cells: MC3T3-E1 murine osteoblast-like cells
Description: Surfaces were prepared on either 6-well plate lids or 35 mm tissue culture dishes, and cells seeded at 75 cells/mm^2 in serum-containing media for 4 h at 37° C. For integrin staining, a cross-linking/extraction biochemical method that selectively isolates bound integrins was employed. Cells were washed, and 1.0 mM DTSSP (Pierce) was added for 15 min to cross-link ligated integrins. After quenching with 50 mM Tris, uncrosslinked cellular components were extracted in 0.1% SDS supplemented with protease inhibitors (350 μg/ml PMSF). Samples were then blocked in 5% FBS for 1 h and incubated with integrin-specific antibodies for 1 h at 37° C. Fluorochrome-labeled secondary antibodies were then incubated for 1 h at 37° C. Following washing, samples were mounted on slides with Gel/Mount mounting media (Biomeda, Foster City, Calif.). For staining of focal adhesions, cells were extracted in 0.5% Triton X-100 in ice-cold cytoskeleton buffer (50 mM NaCl, 3 mM MgCl2, 150 mM sucrose, 20 μg/ml aprotonin, 1 μg/ml leupeptin, 1 mM PMSF, 50 mM Tris, pH 6.8) for 2 min and fixed in cold 3.7% formaldehyde in DPBS for 5 min. Cultures were blocked, subsequently incubated in anti-vinculin monoclonal antibody (1:70 in 5% FBS) and fluorochrome-labeled secondary antibodies for 1 h, and samples mounted on slides.
Since MC3T3-E1 cells assemble robust focal adhesions containing clustered integrins and intracellular structural and signaling proteins, integrin binding and focal adhesion assembly on the engineered interfaces was examined by staining for different integrin subunits and vinculin, which localizes to focal adhesions. MC3T3-E1 cells were allowed to adhere on each saturated ligand-functionalized support for 4 h and integrin binding was evaluated via a crosslinking/extraction and immunostaining protocol, which isolates integrins ligated to the ligand. […] The crosslinking and extraction technique relies in coupling free amines on both the receptor and ligand. Since the tethered RGD has no free amine, the αvβ3 staining in the RGD surfaces is attributed to focal adhesions that were not completely extracted. […] Both surfaces assembled focal adhesions containing vinculin.

T1 sequence (P11688 45-898 limits assumed): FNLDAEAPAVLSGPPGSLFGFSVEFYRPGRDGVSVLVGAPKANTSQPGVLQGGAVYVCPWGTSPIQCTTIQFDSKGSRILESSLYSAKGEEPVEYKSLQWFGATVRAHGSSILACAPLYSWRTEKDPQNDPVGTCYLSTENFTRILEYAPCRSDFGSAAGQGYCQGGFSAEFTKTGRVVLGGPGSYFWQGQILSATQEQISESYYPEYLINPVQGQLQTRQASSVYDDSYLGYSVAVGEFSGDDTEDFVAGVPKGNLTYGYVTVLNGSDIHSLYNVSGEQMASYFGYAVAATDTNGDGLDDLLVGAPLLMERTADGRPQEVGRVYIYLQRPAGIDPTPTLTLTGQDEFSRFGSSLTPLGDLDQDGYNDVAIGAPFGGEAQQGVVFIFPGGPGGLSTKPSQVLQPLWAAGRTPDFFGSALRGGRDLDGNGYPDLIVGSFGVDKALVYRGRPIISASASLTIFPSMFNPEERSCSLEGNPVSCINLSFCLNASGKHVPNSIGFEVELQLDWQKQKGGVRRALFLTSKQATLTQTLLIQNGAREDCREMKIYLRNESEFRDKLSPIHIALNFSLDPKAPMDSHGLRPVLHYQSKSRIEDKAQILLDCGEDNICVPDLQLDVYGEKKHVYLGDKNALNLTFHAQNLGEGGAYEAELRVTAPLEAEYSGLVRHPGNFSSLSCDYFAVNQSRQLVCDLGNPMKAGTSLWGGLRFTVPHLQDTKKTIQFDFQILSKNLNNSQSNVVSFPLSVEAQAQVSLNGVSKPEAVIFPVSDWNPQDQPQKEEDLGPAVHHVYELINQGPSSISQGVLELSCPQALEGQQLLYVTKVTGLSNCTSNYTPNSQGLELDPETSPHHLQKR
T1 sequence (P11688 899-1053 limits assumed): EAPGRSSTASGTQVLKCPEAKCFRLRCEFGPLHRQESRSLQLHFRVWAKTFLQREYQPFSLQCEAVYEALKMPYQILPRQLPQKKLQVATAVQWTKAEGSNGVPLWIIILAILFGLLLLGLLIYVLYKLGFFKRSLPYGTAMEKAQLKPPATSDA
T1 sequence (P09055 21-798): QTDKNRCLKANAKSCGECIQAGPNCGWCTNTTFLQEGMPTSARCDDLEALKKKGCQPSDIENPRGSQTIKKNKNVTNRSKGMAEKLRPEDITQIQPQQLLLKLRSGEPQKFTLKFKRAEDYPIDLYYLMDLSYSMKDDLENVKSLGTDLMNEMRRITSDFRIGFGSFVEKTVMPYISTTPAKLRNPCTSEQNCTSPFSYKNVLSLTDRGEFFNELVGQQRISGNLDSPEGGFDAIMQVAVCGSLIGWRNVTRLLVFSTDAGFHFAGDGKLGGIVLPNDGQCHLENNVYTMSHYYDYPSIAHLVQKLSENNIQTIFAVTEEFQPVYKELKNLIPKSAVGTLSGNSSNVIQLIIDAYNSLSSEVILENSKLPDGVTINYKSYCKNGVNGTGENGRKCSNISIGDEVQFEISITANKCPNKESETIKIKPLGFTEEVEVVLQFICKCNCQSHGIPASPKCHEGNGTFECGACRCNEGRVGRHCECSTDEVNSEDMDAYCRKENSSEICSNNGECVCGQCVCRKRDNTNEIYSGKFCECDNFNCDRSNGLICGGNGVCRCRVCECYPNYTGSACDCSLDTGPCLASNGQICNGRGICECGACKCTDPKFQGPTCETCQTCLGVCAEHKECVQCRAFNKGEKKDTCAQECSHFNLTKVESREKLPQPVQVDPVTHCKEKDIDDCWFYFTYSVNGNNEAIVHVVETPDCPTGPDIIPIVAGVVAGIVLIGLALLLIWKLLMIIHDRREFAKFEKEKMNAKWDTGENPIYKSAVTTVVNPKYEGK

| Substance | stromal cell adhesion (adherent cell fraction) [1] | bound α5β1 integrin staining (α5β1 integrin) | cell adhesion with blocking anti-α2 antibody ([1]; 20 μg/ml anti-rat α2 antibody) | cell adhesion with function-perturbing anti-αv antibody ([1]; 20 μg/ml anti-rat αv antibody) |
| --- | --- | --- | --- | --- |
| GRGDSPC [RGD peptide, linear RGD oligopeptide purchased from BACHEM; primarily supports αvβ3-mediated adhesion, reference compound] | equivalent to background levels | little staining for α5β1 | – | – |
| FNIII7-10: monobiotinylated recombinant fibronectin fragment spanning the 7-10th type III repeats of fibronectin; α5β1 integrin ligand | – | robust, well-defined adhesive structures containing α5β1 integrins | – | – |
| GGYGGGPC(GPP)5GFOGER(GPP)5GPC [GFOGER peptide] | greater stromal cell adhesion | – | completely eliminated cell adhesion | had no effect on adhesion |
